Data reported in patent US20110098296A1, “Thiazole And Oxazole Kinase Inhibitors” (priority 2007, published 2011).
Where a name gives a salt, the structure may show the parent alone.

How the values were obtained:
HN5 tumor cells = assay: Method C: Cell Growth Inhibition Assay (CellTiter-Glo), HN5; format: cell-based; conditions: Homo sapiens, 72 h, 3 days, 4-parameter fit
Method: (§1) Human breast tumor cells (BT474) were cultured in RPMI (Mediatech 50-011-PB), containing 10% FBS (JRH Biosciences 12176) and 1% penicillin-streptomycin (Invitrogen 15140). Human head and neck tumor cells (HN5) were cultured in high glucose DMEM (Mediatech 50-013-PB) containing 10% FBS and 1% penicillin-streptomycin. Human colon tumor cells (Colo205) were cultured in RPMI (Mediatech 50-020-PB) containing 10% FBS and 1% penicillin-streptomycin. Human melanoma cancer cells (SK-MEL-28) were cultured in EMEM with nonessential amino acids (Mediatech 50-011-PB) containing 10% FBS, 1% sodium pyruvate (JT Baker 3354-04), and 1% penicillin-streptomycin. Human melanoma cancer cells (A375P F11s) were cultured in RPMI (Mediatech 50-020-PB) containing 10% FBS, 1% sodium pyruvate, and 1% penicillin-streptomycin. Human colon cancer cells (HT-29) were cultured in high glucose DMEM (Mediatech 50-013-PB) containing 10% FBS and 1% penicillin-streptomycin. Human melanoma cancer cells (SK-MEL-3) were cultured in McCoy's 5A (50-025-PB) containing 15% FBS, and 1% penicillin-streptomycin. All cell lines were maintained at 37° C. in a humidified 5% CO2, 95% air incubator. Cells were harvested using trypsin/EDTA (Invitrogen 25200), counted using an haemocytometer, and plated. For 96-well assays (using white full-area NUNC plates cat. #136102), cells were plated in 105 μL at the following densities (cells/well): HN5, 500; Colo205, 500; SK-MEL-28, 500; A375P-F11s, 500; HT-29, 500; SK-MEL-3, 500; and BT474, 3000. For 384-well assays (white full-area NUNC plates, cat. #781080), cells were plated in 48 μL at the following densities (cells/well): HN5, 500; Colo205, 500; SK-MEL-28, 500; A375P-F11s, 500; HT29, 500; SK-MEL-3, 500; and BT474, 2000.
(§2) The next day, compounds were diluted as follow: For 96-well assays, 13.5 μL of compound in DMSO were diluted using nine (9) serial 1:3 dilutions of 4.5 μL in 9 μL of DMSO. Medium (270 μl/well of RPMI with 10% FBS and 1% penicillin-streptomycin) was added to the plates. Aliquots (7 μl) were added to cells in the final assay giving a final DMSO concentration of 0.2%. For 384-well assays, 15 μL of compound in DMSO were diluted using nine (9) serial 1:3 dilutions of 5 μL in 10 μL of DMSO, followed by a further dilution of 5 μL of compound with 95 μL of medium, of which 2 μL were added to cells in the final assay giving a final DMSO concentration of 0.2%. Cells were incubated at 37° C., 5% CO2 for 3 days.
(§3) Total ATP was measured (as a surrogate estimate of cell number) using CellTiter-Glo® reagent (Promega G7571). Briefly, plates were removed from the incubator and allowed to equilibrate to room temperature for 30 minutes. CellTiter-Glo® (25 μL or 55 μL for 384-well or 96-well assays, respectively) reagent was added to each well and plates were shaken on an orbital plate shaker for 2 mins. Plates were incubated without shaking for a further 30 mins and read on an LJL Analyst GT reader in luminometer mode with an integration time of 0.5 seconds per well. Percent inhibition of cell growth was calculated relative to DMSO vehicle-treated control wells. Concentration of compound required to give 50% inhibition of vehicle-treated control cell growth (IC50) was interpolated using a 4-parameter fit for determining IC50 using the following equation: Y=A+((B−A)/(1+((C/X)̂D))) where X=IC50.

ErbB2 = biological target: T1, ErbB2 (Homo sapiens, UniProt P04626); assay: ErbB-2 substrate phosphorylation assay (HTRF); format: biochemical; conditions: Method (A): Enzyme Mix incubated with compound at 20° C. for 1 hr, reaction started by adding Substrate Mix
T1 construct: made in house; host or cells: baculovirus expression system
T1 sequence (P04626 23-1255): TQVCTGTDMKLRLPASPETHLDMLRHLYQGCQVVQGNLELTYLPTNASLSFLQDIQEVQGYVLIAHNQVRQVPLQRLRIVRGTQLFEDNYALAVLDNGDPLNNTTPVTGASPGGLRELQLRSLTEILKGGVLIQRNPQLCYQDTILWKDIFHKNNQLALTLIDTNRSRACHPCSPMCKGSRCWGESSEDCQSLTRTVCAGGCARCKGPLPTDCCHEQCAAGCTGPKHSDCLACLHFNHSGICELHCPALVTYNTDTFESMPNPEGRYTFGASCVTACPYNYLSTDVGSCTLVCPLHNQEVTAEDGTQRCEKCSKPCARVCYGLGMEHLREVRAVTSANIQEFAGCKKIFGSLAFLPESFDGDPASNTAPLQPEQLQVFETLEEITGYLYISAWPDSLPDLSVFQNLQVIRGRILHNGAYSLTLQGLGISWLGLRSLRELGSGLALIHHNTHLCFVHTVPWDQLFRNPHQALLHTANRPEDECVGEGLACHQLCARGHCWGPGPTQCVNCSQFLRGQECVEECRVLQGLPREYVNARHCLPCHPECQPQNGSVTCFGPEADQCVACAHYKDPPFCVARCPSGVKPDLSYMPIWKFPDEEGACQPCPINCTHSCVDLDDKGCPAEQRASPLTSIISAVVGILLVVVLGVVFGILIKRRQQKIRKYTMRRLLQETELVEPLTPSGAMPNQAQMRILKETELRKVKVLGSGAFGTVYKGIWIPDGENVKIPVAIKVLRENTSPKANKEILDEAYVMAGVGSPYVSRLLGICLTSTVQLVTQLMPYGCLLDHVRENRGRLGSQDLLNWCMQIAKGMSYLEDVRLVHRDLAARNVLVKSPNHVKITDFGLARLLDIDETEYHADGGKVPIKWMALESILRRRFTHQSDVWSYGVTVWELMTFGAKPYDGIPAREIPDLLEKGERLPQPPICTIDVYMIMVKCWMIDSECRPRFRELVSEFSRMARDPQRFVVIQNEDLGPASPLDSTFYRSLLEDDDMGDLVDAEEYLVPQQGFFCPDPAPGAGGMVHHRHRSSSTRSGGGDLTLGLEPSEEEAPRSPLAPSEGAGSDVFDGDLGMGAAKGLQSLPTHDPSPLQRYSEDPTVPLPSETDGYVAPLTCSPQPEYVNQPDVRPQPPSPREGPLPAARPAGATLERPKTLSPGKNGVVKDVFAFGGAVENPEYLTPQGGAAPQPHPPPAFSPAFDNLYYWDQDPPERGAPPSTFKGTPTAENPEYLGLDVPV
Method in brief: (§4)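 Baculovirus-expressed kinase (0.8 nM EGFR or 10 nM ErbB2 in enzyme mix) with Peptide C 0.8 μM and ATP 20 μM (substrate-mix levels), MOPS pH 7.5, MnCl2; 90 min, 20 °C, HTRF anti-phosphotyrosine. Method A adds 1 h enzyme–compound preincubation; B none. pIC50, final compound 0.00027–47.6 μM.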

SK-MEL-3 tumor cells = assay: Method C: Cell Growth Inhibition Assay (CellTiter-Glo), SK-MEL-3; format: cell-based; conditions: Homo sapiens, SK-MEL3, 72 h, 3 days, 4-parameter fit
Method: as §1, §2, §3

Colo205 tumor cells = assay: Method C: Cell Growth Inhibition Assay (CellTiter-Glo), Colo205; format: cell-based; conditions: Homo sapiens, COLO 205, 72 h, 3 days, 4-parameter fit
Method in brief: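 Cells plated at 500 cells/well, dosed next day with 10-point 1:3 dilution series (0.2% final DMSO) and grown 3 days at 37 °C, 5% CO2. CellTiter-Glo luminescence (total ATP) served as cell-number surrogate; inhibition relative to DMSO controls, IC50 interpolated by 4-parameter fit.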

EGFR = biological target: T2, EGFR (Homo sapiens, UniProt P00533); assay: EGFR substrate phosphorylation assay (HTRF); format: biochemical; conditions: Method (A): Enzyme Mix incubated with compound at 20° C. for 1 hr, reaction started by adding Substrate Mix
T2 construct: made in house; host or cells: baculovirus expression system
T2 sequence (P00533 25-1210): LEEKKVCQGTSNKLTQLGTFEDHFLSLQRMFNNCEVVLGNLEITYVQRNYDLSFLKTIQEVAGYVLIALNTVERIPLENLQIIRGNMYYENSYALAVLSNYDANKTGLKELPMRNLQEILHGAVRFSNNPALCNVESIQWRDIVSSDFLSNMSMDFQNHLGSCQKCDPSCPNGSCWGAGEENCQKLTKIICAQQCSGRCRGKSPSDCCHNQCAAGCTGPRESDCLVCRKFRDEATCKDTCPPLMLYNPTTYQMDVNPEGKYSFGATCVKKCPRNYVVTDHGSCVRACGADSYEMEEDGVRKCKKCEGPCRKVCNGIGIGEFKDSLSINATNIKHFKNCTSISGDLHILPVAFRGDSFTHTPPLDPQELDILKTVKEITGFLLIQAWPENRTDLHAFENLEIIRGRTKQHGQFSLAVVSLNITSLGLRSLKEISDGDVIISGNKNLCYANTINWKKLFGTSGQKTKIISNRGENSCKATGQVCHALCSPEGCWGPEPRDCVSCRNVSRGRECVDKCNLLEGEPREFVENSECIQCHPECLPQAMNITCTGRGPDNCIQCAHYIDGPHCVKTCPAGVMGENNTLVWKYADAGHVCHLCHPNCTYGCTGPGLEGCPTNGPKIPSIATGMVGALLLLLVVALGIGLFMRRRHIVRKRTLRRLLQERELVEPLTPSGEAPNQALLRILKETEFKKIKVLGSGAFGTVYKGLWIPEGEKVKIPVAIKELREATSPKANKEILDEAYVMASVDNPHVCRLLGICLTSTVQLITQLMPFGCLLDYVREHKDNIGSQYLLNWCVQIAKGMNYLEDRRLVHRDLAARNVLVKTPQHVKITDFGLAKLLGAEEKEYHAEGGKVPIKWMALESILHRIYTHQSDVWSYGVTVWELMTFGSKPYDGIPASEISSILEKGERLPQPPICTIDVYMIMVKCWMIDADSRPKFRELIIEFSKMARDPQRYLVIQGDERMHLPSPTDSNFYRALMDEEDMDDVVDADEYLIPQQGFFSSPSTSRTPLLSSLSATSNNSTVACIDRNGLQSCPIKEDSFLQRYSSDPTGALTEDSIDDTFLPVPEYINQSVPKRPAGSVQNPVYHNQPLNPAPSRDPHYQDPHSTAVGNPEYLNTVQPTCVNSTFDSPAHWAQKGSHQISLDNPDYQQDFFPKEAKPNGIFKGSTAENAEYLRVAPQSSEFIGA
Method in brief: as §4

BT474 tumor cells = assay: Method C: Cell Growth Inhibition Assay (CellTiter-Glo), BT474; format: cell-based; conditions: Homo sapiens, BT-474, 72 h, 3 days, 4-parameter fit
HT-29 tumor cells = assay: Method C: Cell Growth Inhibition Assay (CellTiter-Glo), HT-29; format: cell-based; conditions: Homo sapiens, HT-29, 72 h, 3 days, 4-parameter fit
Method: as §1, §2, §3

A375P F11s tumor cells = assay: Method C: Cell Growth Inhibition Assay (CellTiter-Glo), A375P F11s; format: cell-based; conditions: Homo sapiens, 72 h, 3 days, 4-parameter fit
Method: as §1, §2, §3

SK-MEL-28 tumor cells = assay: Method C: Cell Growth Inhibition Assay (CellTiter-Glo), SK-MEL-28; format: cell-based; conditions: Homo sapiens, SK-MEL-28, 72 h, 3 days, 4-parameter fit
Method in brief: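 Plating at 500 cells/well is followed the next day by addition of compound as a 1:3 serial dilution series. After 3 days' incubation, CellTiter-Glo luminescence is read and IC50 is calculated versus DMSO wells.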

Row | Compound | IC50 (HN5 tumor cells) [nM] | IC50 (ErbB2) [nM] | IC50 (SK-MEL-3 tumor cells) [nM] | IC50 (Colo205 tumor cells) [nM] | IC50 (EGFR) [nM] | IC50 (BT474 tumor cells) [nM] | IC50 (HT-29 tumor cells) [nM] | IC50 (A375P F11s tumor cells) [nM] | IC50 (SK-MEL-28 tumor cells) [nM]
1 | CN(C)c1nc(-c2cccc(NC(=O)c3c(F)cccc3F)c2)c(-c2ccnc(Nc3cccc(CN4CCCC4)c3)n2)s1 [Example 39, N-{3-[2-(Dimethylamino)-5-(2-{[3-(1-pyrrolidinylmethyl)phenyl]amino}-4-pyrimidinyl)-1,3-thiazol-4-yl]phenyl}-2,6-difluorobenzamide] | 100 to 1000 | < 100 | 100 to 1000 | 100 to 1000 | < 100 | < 100 | 100 to 1000 | 100 to 1000 | > 1000
2 | Cc1nc(-c2cccc(NC(=O)c3c(F)cccc3F)c2)c(-c2ccnc(Nc3ccc(OC4CCN(C(C)C)CC4)c(F)c3)n2)s1 [Example 111, 2,6-Difluoro-N-[3-(5-{2-[(3-fluoro-4-{[1-(1-methylethyl)-4-piperidinyl]oxy}phenyl)amino]-4-pyrimidinyl}-2-methyl-1,3-thiazol-4-yl)phenyl]benzamide] | 100 to 1000 | < 100 | 100 to 1000 | 100 to 1000 | < 100 | < 100 | 100 to 1000 | 100 to 1000 | 100 to 1000
3 | CN(C)CCOc1cccc(Nc2nccc(-c3scnc3-c3cccc(NC(=O)c4c(F)cccc4F)c3)n2)c1 [Example 79, N-[3-(5-{2-[(3-{[2-(Dimethylamino)ethyl]oxy}phenyl)amino]-4-pyrimidinyl}-1,3-thiazol-4-yl)phenyl]-2,6-difluorobenzamide-formic acid] | < 100 | < 100 | > 1000 | 100 to 1000 | < 100 | < 100 | 100 to 1000 | 100 to 1000 | > 1000
4 | CN1CCc2ccc(Nc3nccc(-c4sc(N)nc4-c4cccc(NC(=O)c5c(F)cccc5F)c4)n3)cc2C1 [Example 10, trifluoroacetate] | < 100 | < 100 | 100 to 1000 | 100 to 1000 | < 100 | < 100 | 100 to 1000 | 100 to 1000 | 100 to 1000
5 | CC(=O)N1CCC(Oc2ccc(Nc3nccc(-c4sc(C)nc4-c4cccc(NC(=O)c5c(F)cccc5F)c4)n3)cc2F)CC1 [Example 109, N-(3-{5-[2-({4-[(1-Acetyl-4-piperidinyl)oxy]-3-fluorophenyl}amino)-4-pyrimidinyl]-2-methyl-1,3-thiazol-4-yl}phenyl)-2,6-difluorobenzamide] | 100 to 1000 | < 100 | > 1000 | > 1000 | < 100 | 100 to 1000 | > 1000 | > 1000 | > 1000

Results, then the compound that gave them:

Row | IC50 (HN5 tumor cells) [nM] | IC50 (ErbB2) [nM] | IC50 (SK-MEL-3 tumor cells) [nM] | IC50 (Colo205 tumor cells) [nM] | IC50 (EGFR) [nM] | IC50 (BT474 tumor cells) [nM] | IC50 (HT-29 tumor cells) [nM] | IC50 (A375P F11s tumor cells) [nM] | IC50 (SK-MEL-28 tumor cells) [nM] | Compound
6 | 100 to 1000 | < 100 | > 1000 | > 1000 | < 100 | > 1000 | 100 to 1000 | > 1000 | > 1000 | CN(C)CCOc1ccc(Nc2nccc(-c3sc(N4CCCCC4)nc3-c3cccc(NC(=O)c4c(F)cccc4F)c3)n2)cc1Cl [Example 72, N-{3-[5-{2-[(3-Chloro-4-{[2-(dimethylamino)ethyl]oxy}phenyl)amino]-4-pyrimidinyl}-2-(1-piperidinyl)-1,3-thiazol-4-yl]phenyl}-2,6-difluorobenzamide]
7 | < 100 | < 100 | 100 to 1000 | < 100 | < 100 | < 100 | 100 to 1000 | 100 to 1000 | 100 to 1000 | CN(C)CCOc1ccc(Nc2nccc(-c3sc(N)nc3-c3ccc(F)c(NC(=O)c4c(F)cccc4F)c3)n2)cc1Cl [Example 67]
8 | < 100 | < 100 | 100 to 1000 | 100 to 1000 | < 100 | < 100 | 100 to 1000 | 100 to 1000 | 100 to 1000 | CN(C)CCOc1ccc(Nc2nccc(-c3sc(N)nc3-c3cc(NC(=O)c4c(F)cccc4F)ccc3F)n2)cc1Cl [Example 68, N-[3-(2-Amino-5-{2-[(3-chloro-4-{[2-(dimethylamino)ethyl]oxy}phenyl)amino]-4-pyrimidinyl}-1,3-thiazol-4-yl)-4-fluorophenyl]-2,6-difluorobenzamide]
9 | 100 to 1000 | < 100 | 100 to 1000 | 100 to 1000 | < 100 | 100 to 1000 | 100 to 1000 | 100 to 1000 | 100 to 1000 | CN(C)CCOc1ccc(Nc2nccc(-c3sc(NCCCN4CCOCC4)nc3-c3cccc(NC(=O)c4c(F)cccc4F)c3)n2)cc1Cl [Example 4, N-[3-(5-{2-[(3-Chloro-4-{[2-(dimethylamino)ethyl]oxy}phenyl)-amino]-4-pyrimidinyl}-2-{[3-(4-morpholinyl)propyl]amino}-1,3-thiazol-44)phenyl]-2,6-difluorobenzamide]
10 | 100 to 1000 | < 100 | 100 to 1000 | > 1000 | < 100 | 100 to 1000 | 100 to 1000 | 100 to 1000 | > 1000 | CCc1nc(-c2cccc(NC(=O)c3c(F)cccc3F)c2)c(-c2ccnc(Nc3ccc(OCCN4CCCC4)c(Cl)c3)n2)s1 [Example 113, N-[3-(5-{2-[(3-Chloro-4-{[2-(1-pwrolidinyl)ethyl]oxy}phenyl)amino]-4-pyrimidinyl}-2-ethyl-1,3-thiazol-4-yl)phenyl]-2,6-difluorobenzamide]
11 | 100 to 1000 | < 100 | 100 to 1000 | 100 to 1000 | < 100 | 100 to 1000 | 100 to 1000 | 100 to 1000 | > 1000 | CN(C)CCOc1ccc(Nc2nccc(-c3sc(N4CCN(C)CC4)nc3-c3cccc(NC(=O)c4c(F)cccc4F)c3)n2)cc1Cl [Example 45, N-{3-[5-{2-[(3-Chloro-4-{[2-(dimethylamino)ethyl]oxy}phenyl)amino]-4-pyrimidinyl}-2-(4-methyl-1-piperazinyl)-1,3-thiazol-4-yl]phenyl}-2,6-difluorobenzamide]
